Experimental data as given in US5780481A, “Method for inhibiting activation of the human A3 adenosine receptor to treat asthma” (Merck & Co., Inc., priority 1996, dated 1998).

Key:
[1] = test system: ischemic reperfused myocardium; conditions: in vivo; cited from earlier work
[2] = target: T1, human A1 adenosine receptor (Homo sapiens, UniProt P30542); test: Radioligand binding assay, A1 receptor; conditions: [3H]-cyclohexyladenosine (CHA); membranes of transfected COS7 cells; read-out: IC50, inhibition of specific radioligand binding to A1 receptor
T1 construct: expressed in transfected cells; host or cells: COS7 cells (transient transfection), membranes
T1 sequence (P30542 1-326): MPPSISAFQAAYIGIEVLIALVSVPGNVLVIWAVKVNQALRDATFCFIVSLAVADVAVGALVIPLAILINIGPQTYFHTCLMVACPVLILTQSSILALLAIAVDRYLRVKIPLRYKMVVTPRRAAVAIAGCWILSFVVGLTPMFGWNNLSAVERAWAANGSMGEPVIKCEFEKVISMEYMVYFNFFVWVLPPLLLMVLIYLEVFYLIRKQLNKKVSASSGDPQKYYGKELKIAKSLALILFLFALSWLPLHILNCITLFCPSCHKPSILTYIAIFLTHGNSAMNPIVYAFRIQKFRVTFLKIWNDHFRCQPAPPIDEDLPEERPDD
Text: (§1) The human A1, A2a, A2b and A3 receptor subtype cDNAs were subcloned into the expression vectors pSVL (Pharmacia, Columbus, Ohio), CMV5 (Mumby, et al., PNAS, (87) pp. 728-732 (1990)) pCDNA1 or pREP (Invitrogen). Transient expression in COS7 cells (monkey kidney cell line, ATCC CRL 1651, ATCC, Rockville, Md.) (Doyl et al. WO 95/11681) was accomplished by transfection of the cloned adenosine receptor cDNAs under the control of the SV40 promoter into mammalian cells, such as COS7. Membranes prepared from the transfected cells were utilized for the determination of binding affinity, selectivity and specificity of the human adenosine receptors for various ligands. […]
(§2) Membranes prepared from transfected COS7 cells were utilized in a binding assay to measure the affinity of agonists and antagonists on the human adenosine receptors. […] Bound radioactivity was measured by scintillation counting. Binding data were analyzed by the use on nonlinear regression curve fitting program Graph Pad InPlot, Version 3.0 (Graph Pad Software, San Diego). Ki values were calculated using the Cheng-Prusoff derivation (Cheng, Y. C. and Prusoff, H. R. (1973) Biochem. Pharmacol. 22, 3099-3108). […] Nonselective binding was determined with 1 μM I-ABA for A1 and A3 receptors and 10 μM NECA for A2a receptors. Activity on A2b receptor subtypes was measured in the cAMP accumulation assay described below. […]

[3] = target: T2, human A2a adenosine receptor (Homo sapiens, UniProt P29274); test: Radioligand binding assay, A2a receptor; conditions: [3H]-CGS21680; membranes of transfected COS7 cells; read-out: IC50, inhibition of specific radioligand binding to A2a receptor
T2 construct: expressed in transfected cells; host or cells: COS7 cells (transient transfection), membranes
Text: as §1, §2

[4] = target: T3, human A3 adenosine receptor (Homo sapiens, UniProt P0DMS8); test: cAMP accumulation assay, A3 receptors stably expressed on CHO cells (FIG. 1); format: cell-based
T3 construct: expressed in transfected cells
T3 sequence (P0DMS8 1-318): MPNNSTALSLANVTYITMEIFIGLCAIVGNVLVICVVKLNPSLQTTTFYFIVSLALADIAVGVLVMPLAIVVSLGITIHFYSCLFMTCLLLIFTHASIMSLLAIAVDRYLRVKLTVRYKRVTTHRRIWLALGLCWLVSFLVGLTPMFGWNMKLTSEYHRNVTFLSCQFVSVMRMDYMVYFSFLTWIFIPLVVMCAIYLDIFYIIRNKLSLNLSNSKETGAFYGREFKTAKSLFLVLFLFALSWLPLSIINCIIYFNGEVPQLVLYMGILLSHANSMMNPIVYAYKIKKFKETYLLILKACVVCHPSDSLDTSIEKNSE
Procedure: The changes in cAMP accumulation were measured in stably transfected CHO cells expressing the human adenosine receptor subtypes. CHO cells were washed twice in phosphate buffered saline (PBS) and detached in 0.2% EDTA in PBS. After pelleting at 800 rpm for 10 min, cells were resuspended in KRH buffer (140 mM NaCl/5 mM KCl/2 mM CaCl2 /1.2 mM MgSO4 /1.2 mM KH2 PO4 /6 mM glucose/25 mM Hepes buffer, pH 7.4), washed once in KRH buffer and resuspended at 10^7 cells/mL. The cell suspension (100 μL) was mixed with 100 μL of KRH buffer containing 200 μM of the phosphodiesterase inhibitor Ro 20-1724 and incubated at 37° C. for 15 minutes. Antagonists were preincubated for 10 minutes before adding 5 μM forskolin and 60 μM adenosine. After 10 minutes, 400 μL of 100 mM acetic acid was added and the sample was boiled for 5 minutes. The supernatant was recovered by centrifugation for 15 minutes and cAMP levels were determined by radioimmunoassay ([…] kit, DuPont/NEN) using the acetylation protocol.

[5] = target: T4, human A2b adenosine receptor (Homo sapiens, UniProt P29275); test: cAMP accumulation via A2b receptors; format: cell-based; conditions: at 10 μM; stably transfected CHO cells; adenosine (10 μM) induced
T4 construct: cAMP accumulation induced by adenosine
T4 sequence (P29275 1-332): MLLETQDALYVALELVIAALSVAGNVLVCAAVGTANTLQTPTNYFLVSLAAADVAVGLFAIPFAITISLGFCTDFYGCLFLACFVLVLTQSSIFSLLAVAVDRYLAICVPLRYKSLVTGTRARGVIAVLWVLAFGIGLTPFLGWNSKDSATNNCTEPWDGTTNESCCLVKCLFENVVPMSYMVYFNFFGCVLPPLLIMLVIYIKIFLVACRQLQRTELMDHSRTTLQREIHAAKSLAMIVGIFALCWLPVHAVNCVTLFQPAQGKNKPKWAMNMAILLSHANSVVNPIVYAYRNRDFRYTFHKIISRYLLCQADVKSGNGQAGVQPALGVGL

[6] = test system: myocardial infarct; test: Reduction of myocardial infarct size in anesthetized dogs; format: in vivo, dog
Procedure: The effect of antagonist compound IV, with high affinity for canine A3 adenosine receptors, on myocardial infarct size is compared to a vehicle-treated control group in barbital-anesthetized dogs subjected to 90 minutes of left anterior descending coronary artery occlusion followed by 3 hours of reperfilsion. Vehicle (5 μM NaOH in isotonic saline) or antagonist are infused at a rate of 1 ml/min directly into the left anterior descending coronary artery distal to the occlusion site beginning 10 minutes before occlusion and are continued throughout the entire ischemic period. The myocardial region at risk and infarct size are determined by the triphenyltetrazolium histochemical technique and regional myocardial blood flow by radioactive microspheres. Coronary sinus LDH activity and histamine concentrations were measured at various times throughout the experiments and myeloperoxidase activity was determined at the conclusion of the experiments as an index of neutrophil infiltration into the ischemic-reperfused mycocardium. Ten dogs were included in this preliminary study, 4 in the vehicle-treated group and 6 in the antagonist treated group.

[7] = test system: canine A3 adenosine receptors; test: Affinity for canine A3 adenosine receptors; format: binding
[8] = target: T3, human A3 adenosine receptor; test: Radioligand binding assay, A3 receptor; conditions: [3H]-NECA or [125I]-ABA; membranes of transfected COS7 cells; read-out: IC50, inhibition of specific radioligand binding to A3 receptor
Procedure: Membranes prepared from transfected COS7 cells were utilized in a binding assay to measure the affinity of agonists and antagonists on the human adenosine receptors. […] Bound radioactivity was measured by scintillation counting. Binding data were analyzed by the use on nonlinear regression curve fitting program Graph Pad InPlot, Version 3.0 (Graph Pad Software, San Diego). […] The affinities of agonists and antagonists on human adenosine receptor subtypes were measured in competition binding assays using the radiolabeled adenosine agonists, [^3 H]-cyclo-hexyladenosine (CHA) for A1 receptors, [^3 H]-CGS21680 (2-(p-(2-carboxyethyl)-phenylamino)-5'-N-ethyl-carboxamidoadenosine) for A2a receptors and, [^3 H]-5'-N-ethylcarboxamido adenosine ([^3 H]-NECA), or [^125 I]-N^6 -aminobenzyl adenosine (^125 I-ABA) for A3 receptors. Nonselective binding was determined with 1 μM I-ABA for A1 and A3 receptors and 10 μM NECA for A2a receptors. […]

[9] = test system: hamster cheek pouch arterioles; test: Vascular constriction in hamster cheek pouch arterioles; set-up: species or system Golden hamster
Procedure: Adenosine, inosine, cromolyn, compound 48/80, methylene blue, acetylcholine, and components for saline solutions used to bathe arterioles are obtained from Sigma. 8(p-sulphophenyl)theo-phylline was obtained from Research Biochemicals, Inc. (Natick, Mass.).
Arterioles (luminal diameter approximately 60 μm) are dissected from male Golden hamster cheek pouches, transferred to a 37° C. tissue chamber, and cannulated at both ends (see Duling et al., Am. J. Physiol., (241) (Heart Circ. Physiol., (10) pp. H108-H116 (1981); Duling et al., Microcirculatory Technology, edited by C. H. Baker and W. G. Nastuk, Orlando Academic Press, pp. 265-280 (1986)). Changes in luminal diameter in response to abluminal delivery of adenosine (10^-8 M to 10^-4 M) are measured using videotaped microscopic observation and video calipers with continuous output, to generate cumulative concentration-response curves.
Examination of the abluminal surface of the vessel after staining with methylene blue reveal large numbers of mast cells closely associated with the vessel wall.

[10] = test system: asthmatics; conditions: asthmatics but not nonasthmatics; cited from earlier work
[11] = test system: mast cells isolated from rat peritoneum; conditions: cited from earlier work

T2 sequence (P29274 whole entry): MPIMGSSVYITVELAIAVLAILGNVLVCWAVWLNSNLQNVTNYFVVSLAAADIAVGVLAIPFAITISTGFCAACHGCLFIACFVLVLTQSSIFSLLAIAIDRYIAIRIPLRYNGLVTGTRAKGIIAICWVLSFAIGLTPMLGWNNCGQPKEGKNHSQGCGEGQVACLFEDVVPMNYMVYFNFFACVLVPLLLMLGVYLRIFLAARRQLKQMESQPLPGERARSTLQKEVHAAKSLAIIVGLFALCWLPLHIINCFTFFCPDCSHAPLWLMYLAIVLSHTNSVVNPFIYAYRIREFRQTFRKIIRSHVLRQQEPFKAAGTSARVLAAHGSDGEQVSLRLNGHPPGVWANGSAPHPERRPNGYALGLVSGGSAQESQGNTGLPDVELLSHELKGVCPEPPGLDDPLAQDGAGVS

SMILES: N#Cc1cc(NC(=O)C(=O)O)c(Cl)c(NC(=O)C(=O)O)c1 [lodoxamide]
- myocardial ischemic injury [1]: reduces myocardial ischemic injury

SMILES: COC(=O)C1=C2C=CN(C)C=C2c2nc(-c3ccccc3)nn2C1 [Compound IV]
- IC50 [2]: 5.3 µM
- IC50 [3]: 27.5 µM
- effect on inhibition of cAMP accumulation resulting from adenosine activation of A3 receptors ([4]; 10 μM compound IV, forskolin induced cAMP): prevents the inhibition of cAMP accumulation
- effect on basal cAMP levels ([4]; basal): no effect
- effect on levels of cAMP accumulated with forskolin alone ([4]; forskolin alone): no effect
- IC50, cAMP accumulation via A2b receptors [5]: inactive
- myocardial infarct size ([6]; 90 min LAD occlusion, 3 h reperfusion, intracoronary infusion, vs vehicle): effectively reduces myocardial infarct size
- hemodynamics and regional myocardial blood flow in non-ischemic left circumflex coronary artery region ([6]; at baseline or during occlusion, between groups): not different between groups
- myeloperoxidase activity ([6]; between the two groups, end of experiment): not different between the two groups
- arrhythmias ([6]; during occlusion and reperfusion, all animals): arrhythmias are encountered
- coronary sinus LDH activity ([6]; during reperfusion): reduced
- coronary sinus histamine concentrations ([6]; during reperfusion): reduced
- dP/dt ([6]; during reperfusion): significantly improved
- left anterior descending coronary artery blood flow ([6]; during reperfusion): significantly decreased
- myeloperoxidase activity in infarcted tissue ([6]; infarcted tissue, end of experiment): tendency for reduced activity
- collateral blood flow ([6]; ischemic-reperfused region, during occlusion, particularly subepicardial): slightly greater
- ventricular fibrillation requiring cardioversion ([6]; some dogs from each group): some dogs from each group progress to ventricular fibrillation requiring cardioversion
- affinity for canine A3 adenosine receptors [7]: high affinity
- IC50 [8]: 0.013 µM

SMILES: Cn1c(=O)c2[nH]c(-c3ccc(S(=O)(=O)O)cc3)nc2n(C)c1=O [8(p-sulfophenyl) theophylline]
- effect on adenosine-induced constriction ([9]; pretreatment 100 μM): did not alter the constriction
- effect on adenosine-induced dilator responses ([9]; pretreatment 100 μM): inhibited the dilator responses

SMILES: Nc1ncnc2c1ncn2[C@@H]1O[C@H](CO)[C@@H](O)[C@H]1O [adenosine]
- constrictor response of arterioles ([9]; 10^-6 M adenosine, abluminal): elicited an intense, transient constriction
- dilator response of arterioles ([9]; concentrations higher than 10^-6 M adenosine): induced dilator responses
- mast cell degranulation on abluminal vessel surface ([9]; following exposure to adenosine, methylene blue staining): mast cells are found to be degranulated
- bronchoconstriction [10]: produce bronchoconstriction in asthmatics but not in nonasthmatics
- release of granule contents from mast cells [11]: potentiates the release of granule contents
